Reference: patent publication US20210052679A1, “PROBIOTIC DELIVERY OF GUIDED ANTIMICROBIAL PEPTIDES” (priority 2019, published 2021)

B1: MM1-CRAMP (protein)
chain: MQKMTDQVNYQAMKLTLLQKSGGGSISRLAGLLRKGGEKIGEKLKKIGQKIKNFFQKLVPQPE
modifications: MM1-CRAMP gAMP
B2: MM1-Laterosporulin (protein)
chain: MQKMTDQVNYQAMKLTLLQKSGGGSACQCPDAISGWTHTDYQCHGLENKMYRHVYAICMNGTQVYCRTEWGSSC
modifications: MM1-laterosporulin gAMP

Assays:
[1] = test system: Staphylococcus aureus and Staphylococcus epidermidis; assay: In vitro bactericidal activity assay, targeted staphylococci; format: cell-based; settings: S. aureus and S. epidermidis
Method: The Ulp-1 protease-cleaved proteins were tested for antimicrobial assays against four strains of bacteria: Staphylococcus aureus, Staphylococcus epidermidis, Enterococcus faecalis and Bacillus subtilis. These four species were selected because they are gram positive and the AMPs plectasin and eurocin are specifically active against gram positive bacteria (Mygind et al. 2005, Oeemig et al. 2012). The component controls were free SUMO protein and synthetically produced A12C peptide. Vancomycin was used as the positive control. The standard protocol for a microtiter plate assay with serial dilution was used in which serial 2-fold dilutions of test peptide were made across a 96-well plate containing uniform bacterial inoculum across the peptide dilutions. After bacterial growth in the presence of peptide, cell viability was assayed with resazurin. Experiments with all peptides against all bacterial species were performed with >5 replicates each.

H. pylori [2] = assay: Prophylactic control of H. pylori in mice (qPCR of stomach fluid); format: in vivo, mouse; settings: Day 12; probiotic pre-treatment before H. pylori challenge; FIG. 15
Method: (§1) The L. lactis cultures were propagated overnight as described above. The overnight cultures were spun down at 4000 g for 15 min at 4° C. The pellets were resuspended in sterile PBS. H. pylori stocks were grown overnight on Blood-TS agar as described above and then scraped by a sterile loop and resuspended in sterile PBS. The either bacterial suspension were fed to the mice using 1.5 ga oral gavage needle not exceeding half their stomach volume (˜250 μL). The colony forming units (CFUs) of the resuspension being fed were determined by diluting the resuspension 1/1000 and 1/10000 times and plating on appropriate plates. Pre- and post-inoculation samples from the mouse stomach were collected by flushing their stomach with excess PBS (˜300 μL) and the stomach fluid was collected by reversing the oral gavage injection until the vacuum was maintained.
The supernatants were collected and plated in a 96-well plate and qPCR was performed with primers for the VacA gene to quantify for H. pylori and primers for the acma gene to quantify for L. lactis. Standard curves for each bacterium against their CT values were constructed by including different dilutions of the overnight cultures of the respective bacteria (1/10, 1/100, 1/1000, 1/10000) in the qPCR and plating those dilutions on respective plates to determine the corresponding CFU values. Each data point represents at least 3 replicate mice. […]

H. pylori [3] = assay: Therapeutic control of H. pylori in mice (qPCR of stomach fluid); format: in vivo, mouse; settings: at Day 10, within each AMP/gAMP pair
Source text: These mice were inoculated with H. pylori and the H. pylori was allowed to establish itself in the mouse stomach for 3 days, with daily inoculations to ensure establishment. The mice were then given L. lactis secreting AMP or gAMP to therapeutically treat the H. pylori infection. Stomach samples were collected on Day 0 before H. pylori inoculation; resuspended H. pylori were fed by oral gavage once daily for 3 consecutive days; stomach samples were then collected on Day 5 to test for H. pylori presence and on Day 5 resuspended L. lactis were fed to the mice; subsequent stomach samples were collected on Day 8 and 10.
as §1
The supernatants were collected and plated in a 96-well plate and qPCR was performed with primers for the VacA gene to quantify for H. pylori and primers for the acma gene to quantify for L. lactis. Standard curves for each bacterium against their CT values were constructed by including different dilutions of the overnight cultures of the respective bacteria (1/10, 1/100, 1/1000, 1/10000) in the qPCR and plating those dilutions on respective plates to determine the corresponding CFU values. Each data point represents at least 3 replicate mice.
This was used to generate CFU/μl data from qPCR CT values in FIG. 14.

H. pylori [4] = assay: L. lactis/H. pylori co-culture and qPCR on VacA gene; format: cell-based, Helicobacter pylori; settings: 24 h co-culture with L. lactis expressing AMP/gAMP; FIG. 10
Method: In the co-cultures, different dilutions of L. lactis were used but each well had 10 μl of H. pylori culture (˜3000 CFUs). The L. lactis secreted AMP, gAMP or contained an empty expression vector. Alyteserin and CRAMP were the AMPs tested. These were constructed either genetically fused to the multimerin-derived guide peptide (guide AMP or gAMP) or not (AMP). The amount of H. pylori present in the co-culture at any given time point was measured by qPCR, using primers specific for the VacA gene itself, which codes for the receptor protein to which the gAMP binds. The entire experiment was run in triplicate and the growth of H. pylori after 24 h in the presence of L. lactis expressing various AMPs or gAMPs is shown in FIG. 10.
L. lactis AMP/gAMP clones were propagated from glycerol stocks and grown in GM17 broth overnight with erythromycin (5 μg/ml) with no shaking. H. pylori stocks were first propagated on Blood-TS agar overnight with microaerobic condition and >5% CO2 environment. Then colonies from the plate were transferred to a TS broth with newborn calf serum (5%) and grown overnight under microaerobic condition and >5% CO2 environment. The L. lactis cultures were serially diluted in a 96-well culture plate with TSB broth to make up a volume of 100 μL. To each well, 10 μL of the overnight H. pylori culture was added and each well volume was brought up to 200 μL with more TS broth. The plate was left to grow overnight in a microaerobic environment with >5% CO2. After 24 h, well contents from the culture plate were transferred to a 96-well PCR plate. […] The qPCR was done using primers for VacA gene to quantify H. pylori (forward: 5′-[…]-3′ (SEQ ID NO:12), reverse: 5′-[…]-3′ (SEQ ID NO:13) and primers for acma gene for quantifying L. lactis. Standard curves for H. pylori and L. lactis were constructed by determining CT values for different dilutions of the overnight cultures of the respective bacteria (1/10, 1/100, 1/1000, 1/10000) in the qPCR plates, the CFUs for the dilutions were determined by plating on their respective agar plates.

E. coli = E. coli viability with supernatants of Lactococcus lactis broth cultures; format: cell-based, Escherichia coli; settings: L. lactis culture supernatant, 4 hours of exposure; FIG. 8
Source text: This is reported in FIG. 8 as the survival of E. coli in the presence of broth culture of Lactococcus lactis secreting antimicrobial peptide with or without a guide peptide. […] It should be noted that the legend is in reverse order of the lines, top to bottom, with the upper line in the graph being the buffer control and the lower line being vancomycin. To obtain the results shown in FIG. 8, cultures of Lactococcus lactis containing either the empty pT1bin1 vector, pT1bin1 harboring the antimicrobial peptide laterosporulin, or pT1bin1 harboring laterosporulin genetically fused to the guide peptide from multimerin were centrifuged to remove bacterial cells and the resulting supernatants were added to separate starter cultures of E. coli to check for inhibition of E. coli growth. The starter culture used supplying all replicates consisted of 500 μl of overnight culture of E. coli diluted in 50 ml of LB broth. […] E. coli viability was measured by plating onto LB agar plates the cultures in each well after 4 hours of exposure to supernatant or antibiotic. The resulting colonies appearing on the plates were recorded, with the undiluted buffer control treatment being set to 100% and all other treatments being converted to a fraction of this value, as plotted on the y-axis.

Lactobacillus plantarum = assay: Off-target co-culture with L. lactis, qPCR; format: cell-based; settings: 24 hours; probiotic at 100,000/μl CFU level; FIG. 11
Method: L. lactis AMP/gAMP clones were propagated from glycerol stocks and grown in GM17 broth overnight with erythromycin (5 μg/ml) with no shaking. H. pylori stocks were first propagated on Blood-TS agar overnight with microaerobic condition and >5% CO2 environment. Then colonies from the plate were transferred to a TS broth with newborn calf serum (5%) and grown overnight under microaerobic condition and >5% CO2 environment. The L. lactis cultures were serially diluted in a 96-well culture plate with TSB broth to make up a volume of 100 μL. To each well, 10 μL of the overnight H. pylori culture was added and each well volume was brought up to 200 μL with more TS broth. The plate was left to grow overnight in a microaerobic environment with >5% CO2. After 24 h, well contents from the culture plate were transferred to a 96-well PCR plate. That PCR plate was sealed and heated for 15 min at 100° C. and chilled at 4° C. for 5 min. Then the plate was centrifuged at 2000 g for 2 min and the supernatant was used as the template for qPCR. The qPCR was done using primers for VacA gene to quantify H. pylori (forward: 5′-[…]-3′ (SEQ ID NO:12), reverse: 5′-[…]-3′ (SEQ ID NO:13) and primers for acma gene for quantifying L. lactis. Standard curves for H. pylori and L. lactis were constructed by determining CT values for different dilutions of the overnight cultures of the respective bacteria (1/10, 1/100, 1/1000, 1/10000) in the qPCR plates, the CFUs for the dilutions were determined by plating on their respective agar plates.
The experimental design was identical to that described above in Example 3, with the exception of the off-target bacterium replacing the targeted H. pylori. The off-target bacteria used were Lactobacillus plantarum (gram positive) and Escherichia coli (gram negative).

Molecule | more H. pylori with the AMP versus the gAMP (H. pylori [3]) [fold] | H. pylori in co-culture (qPCR on VacA gene) (H. pylori [4]) | Lactobacillus plantarum level after co-culture (Lactobacillus plantarum) | also measured
A12C-plectasin | – | – | – | toxicity/activity against targeted staphylococci [1]: highly active
Alyteserin (GLKDIFKAGLGSLVKGIAAHVAN; alyteserin AMP) | 15 | not very effective unless fused to the guide peptide | – | H. pylori in mouse stomach fluid (H. pylori [2]): 2000 CFU/μl
CRAMP (ISRLAGLLRKGGEKIGEKLKKIGQKIKNFFQKLVPQPE; cathelin-related anti-microbial peptide (CRAMP)) | 15 | equally toxic | – | –
Laterosporulin (ACQCPDAISGWTHTDYQCHGLENKMYRHVYAICMNGTQVYCRTEWGSSC; laterosporulin AMP) | 2.5 | – | – | viability of E. coli vs empty vector baseline (E. coli): significant decrease in viability
MM1-Alyteserin (MQKMTDQVNYQAMKLTLLQKSGGGSGLKDIFKAGLGSLVKGIAAHVAN; MM1-alyteserin gAMP) | – | – | 10,000 CFU/μl | H. pylori in mouse stomach fluid (H. pylori [2]): 1500 CFU/μl
B1 | – | equally toxic | 2500 CFU/μl | –
B2 | – | – | 10,000 CFU/μl | viability of E. coli vs empty vector baseline (E. coli): no significant difference
